Reference: patent US10202350B2, “MCT4 inhibitors for treating disease” (Vettore, LLC, priority 2015, dated 2019)

Legend:
MCT1 = MCT1 (Homo sapiens (Human), UniProt P53985); assay: MCT1-mediated lactate transport in BT20 breast cancer cells; assay type: cell-based; conditions: native MCT1, 10 mM L-lactate
Experimental: (§1) 10 μL of a 30 mM DMSO stock of BCECF-AM ester (Life Technologies) is added and the cells are incubated at 37° C. for 5 min. The cells are pelleted (300 g, 5 min), washed once with 1 mL Tyrode's Solution, pH 7.4, re-pelleted (300 g, 5 min), and resuspended in 1 mL Tyrode's Solution, pH 7.4.
(§2) 2.5 μL BCECF-loaded cells, along with either 10 μL DMSO or 100×compound in DMSO, are added to 937.5 μL of Tyrode's Solution in a quartz 1.0 mL cuvette (PerkinElmer, B0631116). […] After establishing baseline BCECF fluorescence (around 10-20 s), 50 μL of 1 M sodium L-lactate (Sigma-Aldrich) is added to the cuvette (final concentration: 50 mM) and rapidly mixed. The time-dependent decrease in BCECF fluorescence (490/440 ratio) may be fit to an exponential decay curve (Prism GraphPad) to determine the rate of lactate transport.
Assay 4: MCT1-Mediated Lactate Transport in BT20 Breast Cancer Cells.
Preparation of BCECF loaded cells are as described for Assay 1. Lactate transport assay is as described for Assay 1, except 10 mM L-lactate (rather than 50 mM) is added.

MCT4 [1] = target: T1, MCT4 (Homo sapiens (Human), UniProt O15427); assay: MCT4-mediated lactate transport in NCI-H358 lung adenocarcinoma cells; assay type: cell-based; conditions: native MCT4, 50 mM L-lactate
T1 sequence (O15427 whole entry, looked up): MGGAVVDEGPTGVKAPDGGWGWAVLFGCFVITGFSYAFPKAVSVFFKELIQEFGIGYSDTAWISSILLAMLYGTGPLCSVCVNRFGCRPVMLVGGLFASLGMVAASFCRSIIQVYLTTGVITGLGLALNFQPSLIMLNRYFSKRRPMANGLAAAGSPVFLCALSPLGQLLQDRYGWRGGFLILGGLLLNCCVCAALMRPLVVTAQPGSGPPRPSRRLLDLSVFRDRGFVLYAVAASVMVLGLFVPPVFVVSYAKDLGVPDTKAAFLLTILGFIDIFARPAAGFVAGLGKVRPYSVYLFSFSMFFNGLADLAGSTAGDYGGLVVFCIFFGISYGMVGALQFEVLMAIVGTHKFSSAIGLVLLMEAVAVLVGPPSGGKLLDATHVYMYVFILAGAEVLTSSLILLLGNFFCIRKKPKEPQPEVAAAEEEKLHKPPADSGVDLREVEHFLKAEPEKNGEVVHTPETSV
T1 sequence (P35613 whole entry partner, looked up): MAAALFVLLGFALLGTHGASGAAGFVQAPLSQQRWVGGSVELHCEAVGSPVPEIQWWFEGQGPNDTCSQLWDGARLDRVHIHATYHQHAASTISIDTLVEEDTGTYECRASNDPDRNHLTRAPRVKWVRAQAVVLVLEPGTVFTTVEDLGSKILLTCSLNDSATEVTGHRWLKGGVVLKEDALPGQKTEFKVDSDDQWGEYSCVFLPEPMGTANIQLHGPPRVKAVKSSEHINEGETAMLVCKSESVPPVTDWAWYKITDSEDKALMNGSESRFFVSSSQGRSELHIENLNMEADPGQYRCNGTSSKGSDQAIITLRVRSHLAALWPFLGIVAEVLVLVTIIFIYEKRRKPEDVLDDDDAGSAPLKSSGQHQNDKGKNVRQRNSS
Experimental: as §1, with “Cells (˜7×10^6) are trypsinized (0.05% Trypsin-EDTA), pelleted (300 g, 5 min), and resuspended in 1 mL Tyrode's Solution, pH 7.4 (119 mM NaCl, 5 mM KCl, 25 mM HEPES, pH 7.4, 2 mM CaCl2, 2 mM MgCl2, 6 g/L glucose). 10” for “10”
2.5 μL BCECF-loaded cells, along with either 10 μL DMSO or 100×compound in DMSO, are added to 937.5 μL of Tyrode's Solution in a quartz 1.0 mL cuvette (PerkinElmer, B0631116). Fluorescence measurements are performed on a PerkinElmer LS55 fluorescence spectrometer with dual excitation wavelengths achieved using a filter wheel (FL Winlab program: Fast Filter; Excitation 490/440; Emission 535). After establishing baseline BCECF fluorescence (around 10-20 s), 50 μL of 1 M sodium L-lactate (Sigma-Aldrich) is added to the cuvette (final concentration: 50 mM) and rapidly mixed. The time-dependent decrease in BCECF fluorescence (490/440 ratio) may be fit to an exponential decay curve (Prism GraphPad) to determine the rate of lactate transport.
Assay 2: MCT4-Mediated Lactate Transport in NCI-H358 Lung Adenocarcinoma Cells.
NCI-H358 lung adenocarcinoma cells may be used to measure MCT4 activity in cells with high native levels of MCT4 and low levels of MCT1 and are known to those with skill in the art. Preparation of BCECF-loaded cells and lactate transport activity may be determined as described for Assay 1.

MCT4 [2] = target: T1, MCT4; assay: Lactate transport in MCT4-expressing MDA-MB-453 breast cancer cells (BCECF); assay type: cell-based; conditions: MDA-MB-453 cells stably expressing MCT4; 50 mM L-lactate
Experimental: Assay 1: Lactate Transport in MCT4-Expressing MDA-MB-453 Breast Cancer Cells. […] The following is an exemplary procedure for assaying MCT4 activity of the compounds of Formula (I). Preparing BCECF-Loaded Cells: […] The cells are pelleted (300 g, 5 min), washed once with 1 mL Tyrode's Solution, pH 7.4, re-pelleted (300 g, 5 min), and resuspended in 1 mL Tyrode's Solution, pH 7.4. Lactate Transport Assay: […] Fluorescence measurements are performed on a PerkinElmer LS55 fluorescence spectrometer with dual excitation wavelengths achieved using a filter wheel (FL Winlab program: Fast Filter; […] Emission 535). After establishing baseline BCECF fluorescence (around 10-20 s), 50 μL of 1 M sodium L-lactate (Sigma-Aldrich) is added to the cuvette (final concentration: 50 mM) and rapidly mixed.

[3] = Metabolic stability in human liver microsomes; assay type: in vitro ADME; conditions: human liver microsomes 0.5 mg/mL, 2 μM compound; remaining percentage of parent at 60 min
Experimental: (§3) Metabolic Stability Assays The following are assays that may be used to evaluate the metabolic stability of compounds of Formula (I) in human or mouse microsomes. 1. […] Two separated experiments were performed as follows. a) With NADPH: 10 μL of 20 mg/mL liver microsomes and 40 μL of 10 mM NADPH were added to the incubations. […] The final concentration of microsomes was 0.5 mg/mL. 3. The reaction was started with the addition of 4 μL of 200 μM control compound or test compound solutions. Verapamil was used as positive control in this study. The final concentration of test compound or control compound was 2 μM. 4. Aliquots of 50 μL were taken from the reaction solution at 0, 15, 30, 45 and 60 min. […] Samples were centrifuged at 3, 220 g for 40 minutes. Aliquot of 90 μL of the supernatant was mixed with 90 μL of ultra-pure H2O and then used for LC-MS/MS analysis. 5. Data analysis. All calculations were carried out using Microsoft Excel. Peak areas were determined from extracted ion chromatograms. The slope value, k, was determined by linear regression of the natural logarithm of the remaining percentage of the parent drug vs. incubation time curve. The in vitro half-life (in vitro t½) was determined from the slope value: in vitro t1/2=−(0.693)/k.

[4] = Metabolic stability in mouse liver microsomes; assay type: in vitro ADME; conditions: mouse liver microsomes 0.5 mg/mL, 2 μM compound; remaining percentage of parent at 60 min
Experimental: as §3

MCT4 [5] = target: T1, MCT4; assay: MCT4-mediated lactate transport in MDA-MB-231 breast cancer cells; assay type: cell-based; conditions: MDA-MB-231 cells, native MCT4; 50 mM L-lactate
Experimental: as §1, §2
Preparation of BCECF-loaded cells and lactate transport activity may be determined as described for Assay 1.

MCT1, sequence (P53985 whole entry): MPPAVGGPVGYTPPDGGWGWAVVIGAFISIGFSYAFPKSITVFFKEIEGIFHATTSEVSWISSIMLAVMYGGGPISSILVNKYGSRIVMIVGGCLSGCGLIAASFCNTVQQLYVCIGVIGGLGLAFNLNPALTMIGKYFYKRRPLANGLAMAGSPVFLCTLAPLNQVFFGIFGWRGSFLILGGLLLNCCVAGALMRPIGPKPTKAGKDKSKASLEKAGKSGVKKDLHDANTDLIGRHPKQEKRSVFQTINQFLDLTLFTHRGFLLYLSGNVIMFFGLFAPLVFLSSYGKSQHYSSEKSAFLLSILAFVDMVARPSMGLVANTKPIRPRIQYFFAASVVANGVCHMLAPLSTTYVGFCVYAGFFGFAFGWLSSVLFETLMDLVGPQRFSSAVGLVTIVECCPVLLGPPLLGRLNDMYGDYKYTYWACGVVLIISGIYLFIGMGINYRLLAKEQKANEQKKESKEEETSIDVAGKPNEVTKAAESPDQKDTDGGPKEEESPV
MCT1, sequence (P35613 140-385 partner): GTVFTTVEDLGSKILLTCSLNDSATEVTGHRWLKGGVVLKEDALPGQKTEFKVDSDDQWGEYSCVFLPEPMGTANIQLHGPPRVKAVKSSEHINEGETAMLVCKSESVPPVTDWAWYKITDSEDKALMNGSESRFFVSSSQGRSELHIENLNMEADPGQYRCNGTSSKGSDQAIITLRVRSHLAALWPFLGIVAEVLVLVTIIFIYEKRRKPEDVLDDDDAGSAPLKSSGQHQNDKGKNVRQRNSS

Row | SMILES | IC50 (MCT1; Table 2) | IC50 (MCT4 [1]) | IC50 (MCT4 [2]) | IC50 (MCT1; Table 3) | Human microsome % 60 min [3] | Mouse microsome % 60 min [4] | IC50 (MCT4 [5])
1 | CC(C)(OCc1cc(C2CCCCC2)n(Cc2ccccc2Cl)n1)C(=O)O [Example 15, 2-[[1-[(2-Chlorophenyl)methyl]-5-cyclohexyl-pyrazol-3-yl]methoxy]-2-methyl-propanoic acid] | > 33000 nM | 440 nM | 900 nM |  |  |  | 
2 | CC(C)(OCc1cc(C2CCCC2)n(Cc2ccccc2Cl)n1)C(=O)O [Example 16, 2-[[1-[(2-Chlorophenyl)methyl]-5-cyclopentyl-pyrazol-3-yl]methoxy]-2-methyl-propanoic acid] | 73000 nM | 640 nM | 1000 nM |  |  |  | 
3 | O=C(O)C1(OCc2cc(-c3ccc(Cl)cc3)n(Cc3ccccc3Cl)n2)CC1 [Example 17, 1-[[5-(4-Chlorophenyl)-1-[(2-chlorophenyl)methyl]pyrazol-3-yl]methoxy]cyclopropanecarboxylic acid] | 1200 nM | 860 nM | 440 nM |  |  |  | 
4 | CC(C)(OCc1cc(-c2ccc(Cl)cc2)n(Cc2ccccc2F)n1)C(=O)O [Example 19, 2-[[5-(4-Chlorophenyl)-1-[(2-fluorophenyl)methyl]pyrazol-3-yl]methoxy]-2-methyl-propanoic acid] | 57000 nM | 160 nM | 110 nM |  |  |  | 
5 | CC(C)(OCc1cc(-c2ccc(Cl)cc2)n(Cc2ccncc2)n1)C(=O)O [Example 21, 2-[[5-(4-chlorophenyl)-1-(4-pyridylmethyl)pyrazol-3-yl]methoxy]-2-methyl-propanoic acid] | 300000 nM | 48000 nM | 35000 nM |  |  |  | 
6 | CC(C)(OCc1cc(-c2ccc(Cl)cc2)n(Cc2ccccn2)n1)C(=O)O [Example 22, 2-[[5-(4-Chlorophenyl)-1-(2-pyridylmethyl)pyrazol-3-yl]methoxy]-2-methyl-propanoic acid] | 150000 nM | 39000 nM | 14000 nM |  |  |  | 
7 | CC(C)COc1cccc(-c2cc(COC(C)(C)C(=O)O)nn2Cc2ccccc2Cl)c1 [Example 27, 2-[[1-[(2-Chlorophenyl)methyl]-5-(3-isobutoxyphenyl)pyrazol-3-yl]methoxy]-2-methyl-propanoic acid] |  |  |  | 5600 nM | 43% | 50% | 1 nM
8 | COc1cccc(-c2cc(COC(C)(C)C(=O)O)nn2Cc2ccccc2OC)c1 [Example 36, 2-[[5-(3-Methoxyphenyl)-1-[(2-methoxyphenyl)methyl]pyrazol-3-yl]methoxy]-2-methyl-propanoic acid] |  |  |  | 50000 nM | 85% | 99% | 82 nM
9 | COc1cccc(-c2cc(COC(C)(C)C(=O)O)nn2Cc2ccccc2N(C)C)c1 [Example 38, 2-[[1-[[2-(Dimethylamino)phenyl]methyl]-5-(3-methoxyphenyl)pyrazol-3-yl]methoxy]-2-methyl-propanoic acid] |  |  |  | 60000 nM | 56% | 61% | 48 nM
10 | COc1cccc(-c2cc(COC(C)(C)C(=O)O)nn2-c2ccccc2Cl)c1 [Example 57, 2-[[1-(2-chlorophenyl)-5-(3-methoxyphenyl)-1H-pyrazol-3-yl]methoxy]-2-methylpropanoic acid] |  |  |  | > 133000 nM | 80% | 100% | 

Results, then the compound that gave them:

Row | IC50 (MCT1; Table 2) | IC50 (MCT4 [1]) | IC50 (MCT4 [2]) | IC50 (MCT1; Table 3) | Human microsome % 60 min [3] | Mouse microsome % 60 min [4] | IC50 (MCT4 [5]) | SMILES
11 | 39000 nM | 340 nM | 320 nM |  |  |  |  | CC(C)(OCc1cc(-c2ccccc2Cl)n(Cc2ccccc2Cl)n1)C(=O)O [Example 9, 2-[[5-(2-Chlorophenyl)-1-[(2-chlorophenyl)methyl]pyrazol-3-yl]methoxy]-2-methyl-propanoic acid]
12 | 8800 nM | 33 nM | 21 nM |  |  |  |  | CC(C)(OCc1cc(-c2cccc(Cl)c2)n(Cc2ccccc2Cl)n1)C(=O)O [Example 10, 2-[[5-(3-Chlorophenyl)-1-[(2-chlorophenyl)methyl]pyrazol-3-yl]methoxy]-2-methyl-propanoic acid]
13 | 29000 nM | 25 nM | 45 nM |  |  |  |  | Cc1cccc(-c2cc(COC(C)(C)C(=O)O)nn2Cc2ccccc2Cl)c1 [Example 11, 2-[[1-[(2-Chlorophenyl)methyl]-5-(m-tolyl)pyrazol-3-yl]methoxy]-2-methyl-propanoic acid]
14 | 58000 nM | 49 nM | 38 nM |  |  |  |  | CC(C)(OCc1cc(-c2cccc(F)c2)n(Cc2ccccc2Cl)n1)C(=O)O [Example 12, 2-[[1-[(2-Chlorophenyl)methyl]-5-(3-fluorophenyl)pyrazol-3-yl]methoxy]-2-methyl-propanoic acid]
15 | 17000 nM | 22 nM | 20 nM |  |  |  |  | CC(C)(OCc1cc(-c2cccc(C(F)(F)F)c2)n(Cc2ccccc2Cl)n1)C(=O)O [Example 13, 2-[[1-[(2-Chlorophenyl)methyl]-5-[3-(trifluoromethyl)phenyl]pyrazol-3-yl]methoxy]-2-methyl-propanoic acid]
16 | 45000 nM | 4200 nM | 5300 nM |  |  |  |  | CC(C)(OCc1cc(-c2nccs2)n(Cc2ccccc2Cl)n1)C(=O)O [Example 18, 2-[[1-[(2-Chlorophenyl)methyl]-5-thiazol-2-yl-pyrazol-3-yl]methoxy]-2-methyl-propanoic acid]
17 | 7900 nM | 22000 nM | 17000 nM |  |  |  |  | CC(C)(OCc1cc(-c2ccc(Cl)cc2)n(Cc2ccccc2Cl)n1)C(N)=O [Example 20, 2-[[5-(4-Chlorophenyl)-1-[(2-chlorophenyl)methyl]pyrazol-3-yl]methoxy]-2-methyl-propanamide]
18 |  |  |  | 59000 nM | 67% | 31% | 5.2 nM | CC(C)Oc1cccc(-c2cc(COC(C)(C)C(=O)O)nn2Cc2ccccc2Cl)c1 [Example 35, 2-[[1-[(2-Chlorophenyl)methyl]-5-(3-isopropoxyphenyl)pyrazol-3-yl]methoxy]-2-methyl-propanoic acid]
